Measured values from US7700644B2, “Isoflavonoid dimers” (Novogen Research Pty Ltd, priority 2005, dated 2010).

Key:
[1] = system: PGE2 synthesis; assay: PGE2 synthesis in human monocytes incubated with LPS; format: cell-based; details: LPS 200 ng/mL, 18 hrs, dose responsive
Protocol: Human peripheral blood monocytes (from three separate individuals) were isolated from buffy coats by lymphoprep gradient separation of mononuclear cells followed by counter-current centrifugal elutriation (Demasi et al. 2000). The test compounds were dissolved in DMSO and added to fresh monocytes After 30 min, LPS was added to achieve a final concentration of 200 ng/mL. After incubation for 18 hrs at 37° C. in 5% CO2, supernatants were removed and PGE2, TXB2 (the stable hydrolysis product of TXA2) and TNFα production were measured by radioimmunoassay (RIA).

[2] = system: HPAC (Pancreatic) cells; assay: Chemosensitisation, combination with antineoplastic agent, HPAC; format: cell-based, human
Protocol: The utility of the dimeric compounds of the invention to act as a chemosensitiser when used in combination with an array of standard chemotherapeutic agents was assessed. Dimeric Cpd. 2 was applied to various colorectal and pancreatic cancer cell lines to investigate its synergy with standard chemotherapeutic agents including cisplatin, gemcitabine, paclitaxel, doxorubicin, camptothecin and topotecan.
The experiment as outlined in SOP-BD011 (Versions A and B) was used to screen three antineoplastic agents against a given cell line in any ‘one’ experiment (see for example Kanzawa et al., (1997)). The inherent design of the experiment allowed for three sequences of Cpd. 2 and an antineoplastic agent. • 1) Direct Sequence—Cells are treated with both Cpd. 2 and a single antineoplastic agent (combined) for 5 days. • 2) Cpd. 2 First (Forward) Sequence—Cells are treated for 24 hours with Cpd. 2 before replacing with a 24 hour antineoplastic agent treatment; drugs are then washed out and processed on Day 5. • 3) Reverse Sequence—The reverse order to experiment No. 2 above. i.e. a cytotoxin first sequence Results and Conclusions
All data was evaluated using the formulae of theoretic additivity incorporated into a three dimensional model, as described by Kanzawa et al. (1997). […]

[3] = system: TXB2; assay: TXB2 in murine macrophages (RAW 264.7) stimulated with LPS; format: cell-based, mouse; details: RAW 264.7, LPS 50 ng/ml, 16 hrs, dose responsive
Protocol: (§1) The mouse macrophage cell line RAW 264.7 was cultured in DMEM supplemented with FCS, 2 mM glutamine and 50 U/ml penicillin/streptomycin. Subconfluent cells were detached from the flask by gentle scraping and 24-well plates seeded at 5×10^5 cells per well and allowed to adhere for 1 hr. Cells were then treated either test compounds (in 0.025% DMSO) or vehicle alone, and incubated for 1 hr. LPS 50 ng/ml (LPS —Sigma-Aldrich) was then added. After incubation for 16 hrs, culture media was collected and stored at −80° C. for ecosanoid and cytokine measurements using enzyme immunometric assays (PGE2 and TXB2—Cayman Chemical and TNFα—Becton Dickinson).

[4] = system: human pancreatic cancer cell line, HPAC (CRL-2119); assay: In vitro cytotoxicity, MTT proliferation assay, CRL-2119; format: cell-based; details: Homo sapiens, HPAC; Pancreatic CRL-2119
Protocol: (§2) The human pancreatic cancer cell line, HPAC (CRL-2119) was routinely cultured in 1:1 mixture DMEM (Sigma) plus Ham's F12 (Sigma) medium containing HEPES (15 mM), insulin (0.002 mg/ml), transferrin (0.005 mg/ml), hydrocortisone, (40 ng/ml), epidermal growth factor (10 ng/ml). The ovarian cancer cell line CP70 was obtained as a gift from Dr. Gil Mor (Yale University) and cultured in a 1:1 mixture DMEM plus Ham's F12 medium, and SKOV-3 was purchased from ATCC and cultured in McCoy's 5a medium. The breast cancer cell line MDA-MB-468 cultured in Leibovitz's L-15 medium.
(§3) All cultures were supplemented with 10% FCS(CSL, Australia), penicillin (100 U/ml), streptomycin ([…]), L-glutamine (2 mM) and sodium bicarbonate (1.2 g/L), and cultured at 37° C. in a humidified atmosphere of 5% CO2. All remaining cell lines were purchased from ATCC (Maryland, USA) except where noted.
(§4) IC50 values were determined for each cell line. Cells were seeded in 96-well plates at an appropriate cell density as determined from growth kinetics analysis. NFFs were cultured for 5 days and RK-13s for 24 hrs in the absence and presence of the test compounds. Cell proliferation was assessed after the addition of 20 μl of 3-4,5 dimethylthiazol-2,5-diphenyl tetrazolium bromide (MTT, 2.5 mg/ml in PBS, Sigma) for 3-4 hrs at 37° C. according to manufacturer's instructions. IC50 values were calculated from semi-log plots of % of control proliferation on the y-axis against log dose on the x-axis.

[5] = system: thoracic aorta; assay: Aortic ring contractility induced by noradrenaline; design: species or system Male Sprague-Dawley rats; details: in presence of Cpd. 2 1 μg/ml; 1.94±0.35 vs. 2.09±0.23, p>0.05, no effect; n=6 rings
Protocol: Male Sprague-Dawley rats (250±50 g) were euthanased with 80% CO2 and 20% O2. The thoracic aorta was excised and quickly mounted in organ-baths as described (Chin-Dusting et al, 2001). Full concentration-contractile curves were obtained to noradrenaline ([…]) in the absence and presence of Cpd. 2 (1 μg/ml). Experiments were repeated in n=6 different rings from 6 different animals.

[6] = system: DU145 (Prostate); assay: In vitro cytotoxicity, MTT proliferation assay, DU145; format: cell-based, human; details: Homo sapiens, DU-145
Protocol: as §2, §3, §4

[7] = system: HT-29 (Colorectal); assay: In vitro cytotoxicity, MTT proliferation assay, HT-29; format: cell-based, human; details: Homo sapiens; Colorectal HT-29
Protocol: as §2, §3, §4

[8] = system: ovarian cancer cell line CP70; assay: In vitro cytotoxicity, MTT proliferation assay, CP70; format: cell-based, human; details: Homo sapiens
Protocol: as §2, §3, §4

[9] = system: PGE2; assay: PGE2 in murine macrophages (RAW 264.7) stimulated with LPS; format: cell-based, mouse; details: RAW 264.7, LPS 50 ng/ml, 16 hrs, dose responsive
Protocol: as §1

[10] = system: RPMI-8226 (Leukemic); assay: In vitro cytotoxicity, MTT proliferation assay, RPMI-8226; format: cell-based; details: Homo sapiens; Leukemic RPMI-8226
Protocol: as §2, §3
as §4, with “NFFs were cultured for 5 days and RK-13s for 24 hrs in the absence and presence of the test compounds.” left out

[11] = system: NCI-H23 (Lung); assay: In vitro cytotoxicity, MTT proliferation assay, NCI-H23; format: cell-based; details: Homo sapiens
Protocol: as §2, §3
as §4, with “NFFs were cultured for 5 days and RK-13s for 24 hrs in the absence and presence of the test compounds.” left out

## COc1ccc(C23COc4c(ccc(O)c4C)C2C2c4ccc(O)c(C)c4OCC2c2cc(OC)c(OC)cc23)cc1OC (stereo not drawn) [Cpd. 2, 4,9-Dihydroxy-14,15-dimethoxy-12a-(3′,4′-dimethoxyphenyl)-3,10-dimethyl-2,11-dioxa-(1H,12H)-6b,6c,12a,16b-tetrahydronaphtho[1,2-g]chrysene]
[1]
  effect on PGE2 synthesis: induced
[2]; Cpd. 2 concentrations greater than 5 μM
  synergy with Gemcitabine: Synergy was not observed
[2]; simultaneously (A) or 24 hour sequences (B,C)
  synergy with Gemcitabine: synergistic cytotoxicity
[3]
  effect on TXB2: inhibited
[4]
  IC50: 11.2 ± 4.7 µM
[5]
  maximal contractile response to noradrenaline: 2.09±0.23
[6]
  IC50: 8.84 ± 0.47 µM
[7]
  IC50: 11.5 ± 6 µM
[8]
  IC50: 8.23 ± 3.73 µM
[9]
  effect on PGE2: induced
[10]
  IC50: 15.2 µM
[11]
  IC50: 16.4 µM
